Measurements reported in ChEMBL document CHEMBL5376004, “Discovery and Development of Quinazolinones and Quinazolinediones for Ameliorating Nonalcoholic Fatty Liver Disease (NAFLD) by Modulating COP1-ATGL Axis” (J Med Chem, 2023).
In brackets after ≈: the same amount, converted by molar mass. Activity calls are given as the source filed them. No cut-off for these calls is given here.

Assays:
COP1-AGTL (Homo sapiens) = COP1-AGTL (Homo sapiens) (UniProt Q96AD5+Q8NHY2); assay: Induction of COP1 to ATGL stabilization (unknown origin) expressed in HEK293-A cells assessed as reduction in ATGL ubiquitination incubated for 6 hrs by Western blotting analysis; type: cell-based
Chain of COP1-AGTL (Homo sapiens) (Q8NHY2 whole entry, looked up): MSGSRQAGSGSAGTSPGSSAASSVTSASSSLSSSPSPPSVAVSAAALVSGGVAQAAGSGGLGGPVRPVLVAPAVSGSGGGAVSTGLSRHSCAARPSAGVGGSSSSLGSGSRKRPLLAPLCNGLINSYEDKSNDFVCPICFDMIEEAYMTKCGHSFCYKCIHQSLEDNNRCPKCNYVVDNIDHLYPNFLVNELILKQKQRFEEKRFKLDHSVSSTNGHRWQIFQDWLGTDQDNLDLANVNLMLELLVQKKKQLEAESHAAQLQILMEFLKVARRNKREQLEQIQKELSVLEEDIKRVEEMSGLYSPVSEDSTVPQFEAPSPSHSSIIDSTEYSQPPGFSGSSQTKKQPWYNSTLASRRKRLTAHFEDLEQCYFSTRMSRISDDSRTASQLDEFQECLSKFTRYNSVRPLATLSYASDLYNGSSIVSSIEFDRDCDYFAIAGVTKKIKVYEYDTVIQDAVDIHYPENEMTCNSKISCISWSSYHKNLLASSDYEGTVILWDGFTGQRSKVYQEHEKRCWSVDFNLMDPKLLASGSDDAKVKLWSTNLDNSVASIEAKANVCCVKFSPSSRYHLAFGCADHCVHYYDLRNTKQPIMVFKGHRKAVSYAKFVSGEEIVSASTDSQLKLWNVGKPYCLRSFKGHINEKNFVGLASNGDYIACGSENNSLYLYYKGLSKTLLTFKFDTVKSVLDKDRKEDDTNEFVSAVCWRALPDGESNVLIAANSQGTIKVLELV
Chain of COP1-AGTL (Homo sapiens) (Q96AD5 whole entry, looked up): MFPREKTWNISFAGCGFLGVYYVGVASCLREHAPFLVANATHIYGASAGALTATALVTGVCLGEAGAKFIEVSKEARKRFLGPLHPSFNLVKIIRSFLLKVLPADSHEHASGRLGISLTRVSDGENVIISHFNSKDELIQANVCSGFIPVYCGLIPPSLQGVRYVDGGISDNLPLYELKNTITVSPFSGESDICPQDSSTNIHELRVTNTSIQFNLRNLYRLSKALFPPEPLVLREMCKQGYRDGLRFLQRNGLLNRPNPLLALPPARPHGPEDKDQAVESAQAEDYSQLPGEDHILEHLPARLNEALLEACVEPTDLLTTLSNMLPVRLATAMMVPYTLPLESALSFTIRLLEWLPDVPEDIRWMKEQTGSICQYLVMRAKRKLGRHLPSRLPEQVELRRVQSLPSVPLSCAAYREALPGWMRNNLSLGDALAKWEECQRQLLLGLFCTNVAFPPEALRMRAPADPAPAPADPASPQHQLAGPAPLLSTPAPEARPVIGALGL

[1] = Metabolic stability in mouse liver microsomes assessed as half life; type: ADME, Microsome
[2] = Stability in human plasma assessed as compound remaining after 2 hrs; type: ADME, cell-free; conditions: read-out: Stability
[3] = Metabolic stability in human liver microsomes assessed as half life; type: ADME, Microsome
[4] = Metabolic stability in mouse liver microsomes assessed as intrinsic clearance per mg of protein; type: ADME, Microsome; conditions: read-out: CLH
[5] = Metabolic stability in human liver microsomes assessed as hepatic blood flow; type: ADME, Microsome; conditions: read-out: QH
[6] = Aqueous solubility of compound at pH 7.4; type: physicochemical
[7] = Lipophilicity, logD of compound; type: physicochemical; conditions: octanol/water
[8] = Stability in mouse plasma assessed as compound remaining after 2 hrs; type: ADME, cell-free; conditions: read-out: Stability
[9] = Metabolic stability in human liver microsomes assessed as intrinsic clearance per mg of protein; type: ADME, Microsome; conditions: read-out: CLH
[10] = Metabolic stability in mouse liver microsomes assessed as hepatic blood flow; type: ADME, Microsome; conditions: read-out: QH
HepG2 = assay: Reduction in lipid droplets in human HepG2 cells by […] staining based confocal microscopic analysis; type: functional, cell-based
Hepatocyte = assay: Upregulation of ATGL protein level in mouse primary hepatocytes incubated for 24 hrs by Western blotting analysis; type: functional, cell-based; conditions: dose 10-500 nM

COCCn1cnc2ccc(NC(=O)N3CCCCC3)cc2c1=O
Activity (COP1-AGTL (Homo sapiens)): inactive

COCCn1cnc2ccc(NC(=O)Nc3cccc(C(C)=O)c3)c(-c3ccc(OC)nc3)c2c1=O
Activity (COP1-AGTL (Homo sapiens)): inactive

COCCn1c(=O)c2cc(NC(=O)Nc3cccc(C(C)=O)c3)ccc2n(C(C)C)c1=O
half-life [1]: 0.272 h | remaining at 2 h [2]: 80.8% | half-life [3]: 0.793 h | microsomal CLint [4]: 42.6 µL/min/mg | hepatic extraction ratio [5]: 0.403 | Activity (COP1-AGTL (Homo sapiens)): inactive | solubility [6]: 2.8 µg/mL (≈ 6.39 µM) | logD [7]: 2.67 | remaining at 2 h [8]: 90.7% | microsomal CLint [9]: 14.6 µL/min/mg | hepatic extraction ratio [10]: 0.536

COCCn1c(=O)[nH]c2ccc(NC(=O)Nc3cccc(C(C)=O)c3)cc2c1=O
half-life [1]: 1.25 h | remaining at 2 h [2]: 97.4% | half-life [3]: 7.16 h | microsomal CLint [4]: 11.4 µL/min/mg | hepatic extraction ratio [5]: 0.076 | Activity (COP1-AGTL (Homo sapiens)): Active | solubility [6]: 0.8 µg/mL (≈ 2.02 µM) | logD [7]: 2.17 | remaining at 2 h [8]: 68.4% | microsomal CLint [9]: 1.8 µL/min/mg | hepatic extraction ratio [10]: 0.228

CCn1cnc2ccc(NC(=O)Nc3cccc(C(C)=O)c3)cc2c1=O
Activity (COP1-AGTL (Homo sapiens)): inactive

COCCn1cnc2ccc(NC(=O)Nc3cccc(C(F)(F)F)c3)cc2c1=O
Activity (COP1-AGTL (Homo sapiens)): inactive

COCCn1cnc2ccc(NC(=O)Nc3cccc(C(=O)C(F)(F)F)c3)cc2c1=O
half-life [1]: 1.41 h | remaining at 2 h [2]: 62% | half-life [3]: 1.5 h | microsomal CLint [4]: 8.2 µL/min/mg | hepatic extraction ratio [5]: 0.262 | Activity (COP1-AGTL (Homo sapiens)): inactive | solubility [6]: 9.6 µg/mL (≈ 22.1 µM) | logD [7]: 4.25 | remaining at 2 h [8]: 52.6% | microsomal CLint [9]: 7.7 µL/min/mg | hepatic extraction ratio [10]: 0.183

COCCn1cnc2ccc(NC(=O)Nc3ccc(F)cc3)cc2c1=O
Activity (COP1-AGTL (Homo sapiens)): inactive

COCCn1cnc2ccc(NC(=O)Nc3cccc(C(C)=O)c3)c(Br)c2c1=O
half-life [1]: 1.78 h | remaining at 2 h [2]: 10.3% | microsomal CLint [4]: 7.5 µL/min/mg | Activity (COP1-AGTL (Homo sapiens)): Active | solubility [6]: 3.4 µg/mL (≈ 7.4 µM) | logD [7]: 1.95 | hepatic extraction ratio [10]: 0.167

COCCn1cnc2ccc(NC(=O)N(C)C)cc2c1=O
Activity (COP1-AGTL (Homo sapiens)): inactive

COCCn1cnc2ccc(NC(=O)Nc3ccc(C(F)(F)F)cc3)cc2c1=O
Activity (COP1-AGTL (Homo sapiens)): inactive

CC(=O)c1cccc(NC(=O)Nc2ccc3nc[nH]c(=O)c3c2)c1
Activity (COP1-AGTL (Homo sapiens)): inactive

COCCn1cnc2ccc(NC(=O)Nc3cccc(C(C)=O)c3)c(C3CCNCC3)c2c1=O
Activity (COP1-AGTL (Homo sapiens)): inactive

CC(=O)c1cccc(NC(=O)Nc2ccc3ncn(CCN4CCCCC4)c(=O)c3c2)c1
Activity (COP1-AGTL (Homo sapiens)): inactive

CC(=O)c1cccc(NC(=O)Nc2ccc3ncn(CCN4CCOCC4)c(=O)c3c2)c1
Activity (COP1-AGTL (Homo sapiens)): inactive

CCCCn1cnc2ccc(NC(=O)Nc3cccc(C(C)=O)c3)cc2c1=O
Activity (COP1-AGTL (Homo sapiens)): inactive

COCCn1cnc2ccc(NC(=O)Nc3cccc(OC)c3)cc2c1=O
half-life [1]: 1.05 h | remaining at 2 h [2]: 73.9% | half-life [3]: 2.4 h | Activity (HepG2): Active | microsomal CLint [4]: 11 µL/min/mg | hepatic extraction ratio [5]: 0.184 | Activity (COP1-AGTL (Homo sapiens)): Active | solubility [6]: 21.5 µg/mL (≈ 58.4 µM) | logD [7]: 3.02 | remaining at 2 h [8]: 84.5% | microsomal CLint [9]: 4.9 µL/min/mg | Activity (Hepatocyte): Dose-Dependent Effect | hepatic extraction ratio [10]: 0.231

COCCn1cnc2ccc(NC(=O)Nc3cccc(C(C)=O)c3)c(-c3ccc(F)cc3)c2c1=O
half-life [1]: 0.025 h | remaining at 2 h [2]: 44.9% | microsomal CLint [4]: 456 µL/min/mg | Activity (COP1-AGTL (Homo sapiens)): inactive | solubility [6]: 31.9 µg/mL (≈ 67.2 µM) | logD [7]: 1.9 | hepatic extraction ratio [10]: 0.925

COCCn1cnc2ccc(NC(=O)Nc3cccc(C(C)=O)c3)c(C3=CCNCC3)c2c1=O
Activity (COP1-AGTL (Homo sapiens)): inactive

CC(C)[N+](C)(CCOC(=O)C1c2ccccc2Oc2ccccc21)C(C)C [PROPANTHELINE]
remaining at 2 h [8]: 0%

COCCn1cnc2ccc(NC(=O)Nc3ccccc3OC)cc2c1=O
Activity (COP1-AGTL (Homo sapiens)): inactive

COCCn1cnc2ccc(NC(=O)Nc3cccc(C(=O)c4ccccc4)c3)cc2c1=O
Activity (COP1-AGTL (Homo sapiens)): inactive

COCCn1cnc2ccc(NC(=O)Nc3ccccc3C(F)(F)F)cc2c1=O
Activity (COP1-AGTL (Homo sapiens)): inactive

CCc1cccc(NC(=O)Nc2ccc3ncn(CCOC)c(=O)c3c2)c1
Activity (COP1-AGTL (Homo sapiens)): inactive

CC(=O)c1cccc(NC(=O)Nc2ccc3ncn(CCN(C)C)c(=O)c3c2)c1
Activity (COP1-AGTL (Homo sapiens)): inactive

COCCn1c(=O)c2cc(NC(=O)Nc3cccc(C(C)=O)c3)ccc2n(C)c1=O
Activity (COP1-AGTL (Homo sapiens)): Active

COCCn1cnc2ccc(NC(=O)Nc3cccc(C(C)O)c3)cc2c1=O (stereo unspecified)
Activity (COP1-AGTL (Homo sapiens)): inactive

COCCn1cnc2ccc(NC(=O)Nc3cccc(C(C)=O)c3)c(-c3ccccc3)c2c1=O
Activity (COP1-AGTL (Homo sapiens)): Active

COCCn1cnc2ccc(NC(=O)Nc3ccc(OC)cc3)cc2c1=O
Activity (COP1-AGTL (Homo sapiens)): Active

COCCn1cnc2ccc(NC(=O)NC3CCN(C)CC3)cc2c1=O
Activity (COP1-AGTL (Homo sapiens)): inactive

COCCn1cnc2ccc(NC(=O)Nc3cccc(C(C)=O)c3)c(-c3ccc(OC)cc3)c2c1=O
Activity (COP1-AGTL (Homo sapiens)): inactive

COCCCn1cnc2ccc(NC(=O)Nc3cccc(C(C)=O)c3)cc2c1=O
Activity (COP1-AGTL (Homo sapiens)): Active

COCCn1cnc2ccc(NC(=O)Nc3cccc(C(O)C(F)(F)F)c3)cc2c1=O (stereo unspecified)
half-life [1]: 0.367 h | remaining at 2 h [2]: 74.6% | half-life [3]: 0.753 h | microsomal CLint [4]: 31.7 µL/min/mg | hepatic extraction ratio [5]: 0.415 | Activity (COP1-AGTL (Homo sapiens)): inactive | solubility [6]: 27 µg/mL (≈ 61.9 µM) | logD [7]: 2.54 | remaining at 2 h [8]: 118% | microsomal CLint [9]: 15.3 µL/min/mg | hepatic extraction ratio [10]: 0.462

COCCn1cnc2ccc(NC(=O)Nc3cccc(C(C)=O)c3)c(-c3ccc(C(F)(F)F)cc3)c2c1=O
Activity (COP1-AGTL (Homo sapiens)): inactive

CC(=O)c1cccc(NC(=O)Nc2ccc3ncn(CCCN4CCOCC4)c(=O)c3c2)c1
Activity (COP1-AGTL (Homo sapiens)): inactive

COCCn1cnc2ccc(NC(=O)Nc3ccccc3)cc2c1=O
Activity (COP1-AGTL (Homo sapiens)): inactive

COCCn1c(=O)c2cc(NC(=O)Nc3cccc(C(C)=O)c3)ccc2n(CCN2CCCC2)c1=O
half-life [1]: 0.895 h | remaining at 2 h [2]: 32.8% | half-life [3]: 2.56 h | microsomal CLint [4]: 13 µL/min/mg | hepatic extraction ratio [5]: 0.175 | Activity (COP1-AGTL (Homo sapiens)): Active | solubility [6]: 124 µg/mL (≈ 252 µM) | logD [7]: 2.58 | remaining at 2 h [8]: 50.3% | microsomal CLint [9]: 4.6 µL/min/mg | hepatic extraction ratio [10]: 0.26
